Test results as given in patent publication US20240352000A1, “NOVEL PYRIMIDINE-2,4-DIAMINE DERIVATIVES, PREPARATION METHOD THEREFOR, AND PHARMACEUTICAL COMPOSITION CONTAINING SAME AS ACTIVE INGREDIENT FOR PREVENTION OR TREATMENT OF CANCER” (KOREA RESEARCH INSTITUTE OF CHEMICAL TECHNOLOGY, priority 2021, published 2024).

Columns and labels:
HER2 A775_G776insYVMA = HER2 A775_G776insYVMA (Homo sapiens (Human), UniProt P04626, INS775YVMA); experiment: HTRF enzyme assay, HER2 mutant enzyme; format: biochemical; conditions: recombinant enzyme, 37° C. 2 hours
Chain of HER2 A775_G776insYVMA (P04626 other isoform, or with tags, fused parts or gaps del 1-675/ins YVMA behind 775 limits assumed): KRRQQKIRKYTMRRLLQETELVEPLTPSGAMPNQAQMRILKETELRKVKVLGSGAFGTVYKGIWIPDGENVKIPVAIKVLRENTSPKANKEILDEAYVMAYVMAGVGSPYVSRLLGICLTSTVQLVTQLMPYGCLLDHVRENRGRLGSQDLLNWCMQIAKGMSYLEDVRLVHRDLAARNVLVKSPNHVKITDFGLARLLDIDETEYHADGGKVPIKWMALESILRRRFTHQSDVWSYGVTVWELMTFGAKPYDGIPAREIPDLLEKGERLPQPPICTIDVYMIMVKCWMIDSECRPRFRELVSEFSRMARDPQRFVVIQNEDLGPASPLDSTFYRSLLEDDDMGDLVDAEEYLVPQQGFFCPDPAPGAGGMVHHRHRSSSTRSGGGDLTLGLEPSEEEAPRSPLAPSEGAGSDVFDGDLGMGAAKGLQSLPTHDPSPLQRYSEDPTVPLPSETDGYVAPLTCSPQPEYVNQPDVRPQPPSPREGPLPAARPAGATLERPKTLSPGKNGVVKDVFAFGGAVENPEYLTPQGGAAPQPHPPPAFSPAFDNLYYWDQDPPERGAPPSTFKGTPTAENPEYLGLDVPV
Protocol: An experiment to measure the activity of the compounds of the present invention against HER mutant enzymes was performed as follows using the HTRF system sold by Cisbio. For the HER2 mutant enzyme, HER2 A775_G776insYVMA mutant enzyme, a recombinant protein provided by Carna Biosciences was purchased and used.
(§1) The composition of the assay buffer used for measuring the activity was 50 mM Tris-HCl pH 7.5, 100 mM NaCl, 7.5 mM MgCl2, 3 mM KCl, 0.01% Tween 20, 0.1% BSA, and 1 mM DTT. Here, an enzyme reaction was performed using with ATP at a concentration of […] and a peptide substrate labeled biotin at a concentration of […]. Analysis of the inhibitory effect of the compounds against the HER2 A775_G776insYVMA mutant activity was conducted according to the following analysis reaction recipe. • Component 1: 4 μL of a HER2 A775_G776insYVMA mutant enzyme • Component 2: 2 μL of a compound solution • Component 3: 4 μL of ATP and a peptide labeled with biotin
(§2) The enzyme reaction was started by first mixing Component 1 and Component 2 and then adding Component 3. After reaction at 37° C. for 2 hours, […] of measurement solution consisting of streptavidin-XL665 and europium-labeled anti-phosphotyrosine antibody provided by Cisbio was added to the enzyme reaction solution and reacted at room temperature for 1 hour. Finally, the ratio of fluorescence values at 615 nm and 665 nm was obtained using the Envision equipment from Perkin-Elmer to quantitatively measure the enzyme activity and confirmed the inhibitory ability of the compounds. The measurement values measured at seven compound concentrations were analyzed using the Prism program (version 5.01, Graphpad Software, Inc.), and the IC50 value, which is an indicator of the inhibitory ability of the compound, was calculated.

Ba/F3 EGFR L858R/T790M = experiment: CellTiter-Glo cell viability, Ba/F3 EGFR L858R/T790M; format: cell-based; conditions: 72 hours
Protocol: (§3) An experiment to measure the activity of the compounds of the present invention against the mutant Ba/F3 EGFR cell line was performed as follows using the CellTiter-Glo system sold by Promega. The CellTiter-Glo assay is a method to confirm the cell viability by measuring ATP present in cells in cell culture. The Ba/F3 EGFR L858R, Ba/F3 EGFR L858R/T790M, Ba/F3 EGFR L858R/T790M/C797S mutant cell line was used. The Ba/F3 EGFR L858R, Ba/F3 EGFR L858R/T790M, and Ba/F3 EGFR L858R/T790M/C797S mutant cell lines was cultured in RPMI containing 10% FBS and 1% penicillin-streptomycin with 1 μg of puromycin in an incubator at 37° C. and 5% CO2.
(§4) Analysis of the inhibitory ability effect of the compounds against EGFR was conducted according to the following analysis reaction recipe.
(§5) 2500 cells/90 μl were passaged and cultured in a 96-well cell culture plate, and after 24 hours, treated with the compound represented by Formula 1 at a concentration of 0, 0.01, 0.03, 0.1, 0.3, 1, 3, and 10 (μM). After reaction for 72 hours, the plate treated with the compound was left at room temperature for 30 minutes, then further treated with 100 μl of reagent, and shaken at room temperature for 10 minutes. Finally, the ratio of fluorescence values at 570 nm was obtained using the equipment to quantitatively measure and confirmed the inhibitory ability of the compounds. The measurement values measured at eight compound concentrations were analyzed using the Prism program (version 5.01, Graphpad Software, Inc.), and the IC50 value, which is an indicator of the inhibitory ability of the compound, was calculated.

[1] = system: Ba/F3 EGFR V769_D770insASV; experiment: CellTiter-Glo cell growth, Ba/F3 EGFR Ex20 insertion mutant; format: cell-based; conditions: 72 hours
Protocol: An experiment to measure the activity of the compounds of the present invention against the Ba/F3 EGFR V769_D770insASV mutant cell line was performed as follows using the CellTiter-Glo system sold by Promega. The CellTiter-Glo assay is a method to confirm the cell viability by measuring ATP present in cells in cell culture. For the Ba/F3 EGFR V769_D770insASV mutant cell line, a cell line provided by Crown Bioscience was purchased and used. The Ba/F3 EGFR V769_D770insASV mutant cell line was cultured in RPMI containing 10% FBS and 1% penicillin-streptomycin with 1 μg/ml of puromycin in an incubator at 37° C. and 5% CO2.
Analysis of the inhibitory ability effect of the compounds against the EGFR mutant cell growth was conducted according to the following analysis reaction recipe.
as §5, with “1000 cells/100 μL were passaged” for “2500 cells/90 μl were passaged”, “[…]. After reaction” for “and 10 (μM). After reaction”, “with 100 μL of reagent,” for “with 100 μl of reagent,”, “confirmed the cell growth inhibitory ability” for “confirmed the inhibitory ability”, “of the cell growth inhibitory ability” for “of the inhibitory ability”

Ba/F3 EGFR del19/T790M = experiment: CellTiter-Glo cell viability, Ba/F3 EGFR del19/T790M; format: cell-based; conditions: 72 hours
Protocol: (§6) An experiment to measure the activity of the compounds of the present invention against the mutant Ba/F3 EGFR cell line was performed as follows using the CellTiter-Glo system sold by Promega. The CellTiter-Glo assay is a method to confirm the cell viability by measuring ATP present in cells in cell culture. For the Ba/F3 EGFR del19, Ba/F3 EGFR del19/T790M, Ba/F3 del19/T790M/C797S mutant cell line, a cell line provided by Crown Bioscience was purchased and used. The Ba/F3 EGFR del19, Ba/F3 EGFR del19/T790M, Ba/F3 del19/T790M/C797S mutant cell line was cultured in RPMI containing 10% FBS and 1% penicillin-streptomycin with 1 μg of puromycin in an incubator at 37° C. and 5% CO2.
as §4
as §5, with “cells/90 μL” for “cells/90 μl”

[2] = system: Ba/F3 EGFR del19/T790M/C797S; experiment: CellTiter-Glo cell viability, Ba/F3 EGFR del19/T790M/C797S; format: cell-based; conditions: 72 hours
Protocol: as §6, §4
as §5, with “cells/90 μL” for “cells/90 μl”

Ba/F3 EGFR L858R = experiment: CellTiter-Glo cell viability, Ba/F3 EGFR L858R; format: cell-based; conditions: 72 hours
Protocol: as §3, §4, §5

EGFR A763_Y764insFHEA = EGFR A763_Y764insFHEA (Homo sapiens (Human), UniProt P00533, INS763FHEA); experiment: HTRF enzyme assay, EGFR Ex20 insertion mutant enzyme; format: biochemical; conditions: recombinant enzyme, 37° C. 2 hours
Chain of EGFR A763_Y764insFHEA (P00533 other isoform, or with tags, fused parts or gaps del 1-694/ins FHEA behind 763 limits assumed): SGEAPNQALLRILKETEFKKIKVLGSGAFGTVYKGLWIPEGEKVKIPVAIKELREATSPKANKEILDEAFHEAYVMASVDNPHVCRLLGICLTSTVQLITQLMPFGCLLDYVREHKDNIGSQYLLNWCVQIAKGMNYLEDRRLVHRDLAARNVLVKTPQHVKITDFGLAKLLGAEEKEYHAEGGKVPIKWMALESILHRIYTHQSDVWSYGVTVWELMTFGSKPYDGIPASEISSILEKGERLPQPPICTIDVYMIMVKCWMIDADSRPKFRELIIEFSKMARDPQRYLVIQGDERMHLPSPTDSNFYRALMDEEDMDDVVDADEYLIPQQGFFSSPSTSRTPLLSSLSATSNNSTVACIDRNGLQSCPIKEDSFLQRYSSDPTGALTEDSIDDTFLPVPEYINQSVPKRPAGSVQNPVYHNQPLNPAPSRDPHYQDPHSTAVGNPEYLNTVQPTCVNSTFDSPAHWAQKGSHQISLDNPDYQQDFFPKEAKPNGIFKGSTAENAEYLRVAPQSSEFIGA
Protocol: An experiment to measure the activity of the compounds of the present invention against EGFR mutant enzymes was performed as follows using the HTRF system sold by Cisbio. For the EGFR mutant enzyme, EGFR A763_Y764insFHEA enzyme, a recombinant protein provided by SignalChem was purchased and used.
as §1, with “performed using ATP at” for “performed using with ATP at”, “substrate labeled with biotin at” for “substrate labeled biotin at”, “against the EGFR activity was” for “against the HER2 A775_G776insYVMA mutant activity was”, “μL of an EGFR mutant enzyme” for “μL of a HER2 A775_G776insYVMA mutant enzyme”
as §2

[3] = system: Ba/F3 EGFR L858R/T790M/C797S; experiment: CellTiter-Glo cell viability, Ba/F3 EGFR L858R/T790M/C797S; format: cell-based; conditions: 72 hours
Protocol: as §3, §4, §5

Ba/F3 EGFR del19 = experiment: CellTiter-Glo cell viability, Ba/F3 EGFR del19; format: cell-based; conditions: 72 hours
Protocol: as §6, §4
as §5, with “cells/90 μL” for “cells/90 μl”

| SMILES | IC50 (HER2 A775_G776insYVMA) | IC50 (Ba/F3 EGFR L858R/T790M) | IC50 [1] | IC50 (Ba/F3 EGFR del19/T790M) | IC50 [2] | IC50 (Ba/F3 EGFR L858R) | IC50 (EGFR A763_Y764insFHEA) | IC50 [3] | IC50 (Ba/F3 EGFR del19) |
| --- | --- | --- | --- | --- | --- | --- | --- | --- | --- |
| COc1cc(N2CCC(N3CCN(C)CC3)CC2)ccc1Nc1ncc(Cl)c(Nc2cccc3c2N(C(C)=O)CC3)n1 [Example 12, 1-(7-((5-chloro-2-((2-methoxy-4-(4-(4-methylpiperazin-1-yl)piperidin-1-yl)phenyl)amino)pyrimidin-4-yl)amino)indolin-1-yl)ethan-1-one] | 25 nM | > 100 nM | > 100 nM | > 100 nM | > 100 nM | > 100 nM | 178 nM | > 100 nM | < 100 nM |
| CCS(=O)(=O)N1CCc2cccc(Nc3nc(Nc4ccc(N5CCC(N6CCN(C)CC6)CC5)cc4OC)ncc3Cl)c21 [Example 13, 5-chloro-N4-(1-(ethylsulfonyl)indolin-7-yl)-N2-(2-methoxy-4-(4-(4-methylpiperazin-1-yl)piperidin-1-yl)phenyl)pyrimidine-2,4-diamine] | 26 nM | > 100 nM | > 100 nM | > 100 nM | > 100 nM | > 100 nM | 91 nM | > 100 nM | < 100 nM |
| CCC(=O)N1CCc2cccc(Nc3nc(Nc4ccc(N5CCC(N6CCN(C)CC6)CC5)cc4OC)ncc3Cl)c21 [Example 14, 1-(7-((5-chloro-2-((2-methoxy-4-(4-(4-methylpiperazin-1-yl)piperidin-1-yl)phenyl)amino)pyrimidin-4-yl)amino)indolin-1-yl)propan-1-one] | > 100 nM | > 100 nM | > 100 nM | > 100 nM | > 100 nM | > 100 nM | > 100 nM | > 100 nM | < 100 nM |
| COc1cc(N2CCC(N3CCN(C)CC3)CC2)ccc1Nc1ncc(Cl)c(Nc2cccc3c2N(C(C)=O)CCC3)n1 [Example 15, 1-(8-((5-chloro-2-((2-methoxy-4-(4-(4-methylpiperazin-1-yl)piperidin-1-yl)phenyl)amino)pyrimidin-4-yl)amino)-3,4-dihydroquinolin-1(2H)-yl)ethan-1-one] | 589 nM | > 100 nM | > 100 nM | > 100 nM | > 100 nM | > 100 nM | > 100 nM | > 100 nM | > 100 nM |
| CCC(=O)N1CCCc2cccc(Nc3nc(Nc4ccc(N5CCC(N6CCN(C)CC6)CC5)cc4OC)ncc3Cl)c21 [Example 16, 1-(8-((5-chloro-2-((2-methoxy-4-(4-(4-methylpiperazin-1-yl)piperidin-1-yl)phenyl)amino)pyrimidin-4-yl)amino)-3,4-dihydroquinolin-1(2H)-yl)propan-1-one] | > 100 nM | > 100 nM | > 100 nM | > 100 nM | > 100 nM | > 100 nM | > 100 nM | > 100 nM | > 100 nM |
| COc1cc(N2CCC(N3CCNCC3)CC2)ccc1Nc1ncc(Cl)c(Nc2cccc3c2N(S(C)(=O)=O)CC3)n1 [Example 17, 5-chloro-N2-(2-methoxy-4-(4-(piperazin-1-yl)piperidin-1-yl)phenyl)-N4-(1-(methylsulfonyl)indolin-7-yl)pyrimidine-2,4-diamine] | 4 nM | > 100 nM | > 100 nM | < 100 nM | > 100 nM | < 100 nM | 20 nM | > 100 nM | < 100 nM |
